Source: patent US8247556B2, “Method for preparing 6-substituted-7-aza-indoles” (Amgen Inc., priority 2005, dated 2012)

Assays:
[1] = target: T1, CYP 2D6 (Homo sapiens, UniProt P10635); assay: Human Liver Microsome CYP 2D6 Inhibition; assay type: in vitro ADME; settings: human liver microsomes, bufuralol substrate; read-out: inhibited CYP2D6 microsomes, IC50
T1 construct: followed by 555.6 ml of 20 mg/mL HLM (BD Gentest); tissue BD Gentest; host or cells: human liver microsomes
Experimental: Determining the IC-50 for Human Liver Microsome CYP 2D6 Inhibition
Postassium Phosphate Buffer pH 7.4 (39.333 mL) is chilled in an ice bath and added to a 50 ml plastic tube. A 3.2 mM bufuralol solution is prepared. 111.1 ul of 3.2 mM bufuralol is added to the buffer followed by 555.6 ml of 20 mg/mL HLM (BD Gentest). The incubation mixture was gently inverted and equilibrated at 37° C. for 5 min. A stock inhibitor solution is prepared, such as in DMSO. Incubation mixture (801 ul) is added into 96-well, 1.2 mL plastic tubes. Inhibitor is added at various concentrations (e.g. 30 μM to […]). The tubes are sealed and mix by inverting 5 times gently. The incubation mixture containing inhibitor (270 μL) is added by aliquot into wells of a 1 mL, 96-well block (duplicate). The block is placed into a 37° C. water bath and equilibrated for 3 minutes. 10 mM NADPH (30 ml) is added to all samples. After 5 min, the reactions are stopped by adding 300 ml of Quench Solution [0.1% TFA in CH3CN]. 1′-OH-bufuralol-d9 (750 ng/mL 30 μL) is added, the block is gently vortexed then centrifuged at 3000 rpm for 10 min at 4° C. 50 μL of supernatant from all samples is added by aliquot into a shorter, 96-well block. The aliquoted supernatants are pooled with other assay(s) and HPLC Grade Water (50 μL) is added to all samples. After covering and shaking by vortex gently for 2 minutes, the solutions were analyzed by LC-MS (API 3000, 5% MeOH w/0.1% AcOH to 95% MeOH w/0.1% AcOH). 500 nM quinidine is used as a control.

[2] = target: T2, CYP 3A4 (Homo sapiens, UniProt P08684); assay: Human Liver Microsome CYP 3A4 Inhibition; assay type: in vitro ADME; settings: human liver microsomes, midazolam substrate; read-out: inhibited CYP3A4 microsomes, IC50
T2 construct: followed by 222.2 ml of 20 mg/mL HLM (BD Gentest); tissue BD Gentest; host or cells: human liver microsomes
T2 sequence (P08684 whole entry): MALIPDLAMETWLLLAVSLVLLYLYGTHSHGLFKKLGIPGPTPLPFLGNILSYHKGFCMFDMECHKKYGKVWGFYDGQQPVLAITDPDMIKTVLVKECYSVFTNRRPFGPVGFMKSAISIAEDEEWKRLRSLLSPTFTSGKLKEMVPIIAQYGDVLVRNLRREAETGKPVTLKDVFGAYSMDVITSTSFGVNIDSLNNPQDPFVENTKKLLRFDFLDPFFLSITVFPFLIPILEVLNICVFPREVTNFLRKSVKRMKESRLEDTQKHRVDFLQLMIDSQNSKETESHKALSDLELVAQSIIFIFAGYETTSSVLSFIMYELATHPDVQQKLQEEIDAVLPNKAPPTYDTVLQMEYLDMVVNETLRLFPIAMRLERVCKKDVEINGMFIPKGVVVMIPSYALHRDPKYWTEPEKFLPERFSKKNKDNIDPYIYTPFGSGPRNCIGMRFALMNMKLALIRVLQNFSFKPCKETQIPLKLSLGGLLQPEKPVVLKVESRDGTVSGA
Experimental: Determining the IC-50 for Human Liver Microsome CYP 3A4 Inhibition
Postassium Phosphate Buffer pH 7.4 (39.667 mL) is chilled in an ice bath and added to a 50 ml plastic tube. A 2 mM midazolam solution is prepared. 111.1 ul of 2 mM midazolam is added to the buffer followed by 222.2 ml of 20 mg/mL HLM (BD Gentest). The incubation mixture was gently inverted and equilibrated at 37° C. for 5 min. A stock inhibitor solution is prepared, such as in DMSO. Incubation mixture (801 ul) is added into 96-well, 1.2 mL plastic tubes. Inhibitor is added at various concentrations (e.g. 30 uM to 120 nM). The tubes are sealed and mix by inverting 5 times gently. The incubation mixture containing inhibitor (270 uL) is added by aliquot into wells of a 1 mL, 96-well block (duplicate). The block is placed into a 37° C. water bath and equilibrated for 3 min. 10 mM NADPH (30 ml) is added to all samples. After 5 minutes, the reactions are stopped by adding 300 ml of Quench Solution [0.1% TFA in CH3CN]. 1′-OH-Midazolam-d313C (2 mg/mL 30 uL) is added, the block is gently vortexed then centrifuged at 3000 rpm for 10 minutes at 4° C. 50 μL of supernatant from all samples is added by aliquot into a shorter, 96-well block. The aliquoted supernatants are pooled with other assay(s) and HPLC Grade Water (50 ul) is added to all samples. After covering and shaking by vortex gently for 2 minutes, the solutions were analyzed by LC-MS (API 3000,5% MeOH w/0.1% AcOH to 95% MeOH w/0.1% AcOH). 37 nM ketoconazole is used as a control.

[3] = system: VEGF-stimulated HUVEC proliferation (Human Umbilical Vein Endothelial cells); assay: HUVEC Proliferation Assay; assay type: cell-based; settings: VEGF 50 ng/mL, 72 h, CyQuant fluorescent dye, read-out: inhibited VEGF-stimulated HUVEC proliferation at a level
Method in brief: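 HUVEC (passage 2–3) were seeded in DMEM+10% FBS for 22 h, then pre-incubated 2–3 h with 5-point, 5-fold compound dilutions (0.25% DMSO). They were then stimulated with VEGF (50 ng/mL final) for 72 h at 37 °C. Proliferation was read by CyQuant fluorescence (485/530 nm) after freeze-thaw, and IC50 came from a 4-parameter fit.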

T1 sequence (P10635 whole entry): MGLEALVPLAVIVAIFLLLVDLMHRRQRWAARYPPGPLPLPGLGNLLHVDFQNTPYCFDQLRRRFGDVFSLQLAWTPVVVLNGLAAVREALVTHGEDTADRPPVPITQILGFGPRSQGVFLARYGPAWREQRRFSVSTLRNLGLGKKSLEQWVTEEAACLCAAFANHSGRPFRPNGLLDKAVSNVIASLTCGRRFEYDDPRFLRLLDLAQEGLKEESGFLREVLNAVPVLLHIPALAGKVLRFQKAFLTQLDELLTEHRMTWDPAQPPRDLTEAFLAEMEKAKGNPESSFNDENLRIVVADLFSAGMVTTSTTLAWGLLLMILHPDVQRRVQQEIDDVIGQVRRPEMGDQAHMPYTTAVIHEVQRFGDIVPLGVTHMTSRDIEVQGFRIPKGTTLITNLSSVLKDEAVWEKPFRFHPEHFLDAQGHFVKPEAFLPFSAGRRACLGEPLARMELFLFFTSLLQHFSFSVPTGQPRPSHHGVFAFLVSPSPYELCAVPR

IC50 [1] [µM]	IC50 [2] [µM]	SMILES	IC50 [3] [µM]
> 20	> 20	Cc1nc2cc(NC(=O)c3cccnc3NCc3ccnc4c3CC(=O)N4)ccc2s1 [Example 74, N-(2-methyl-1,3-benzothiazol-5-yl)-2-(((2-oxo-2,3-dihydro-1H-pyrrolo[2,3-b]pyridin-4-yl)methyl)amino)-3-pyridinecarboxamide]	–
–	> 20	O=C(Nc1ccc(C(F)(F)F)cc1)c1cc(F)cnc1NCc1ccnc2[nH]ccc12 [Example 78, 5-fluoro-2-((1H-pyrrolo[2,3-b]pyridin-4-ylmethyl)amino)-N-(4-(trifluoromethyl)phenyl)-3-pyridinecarboxamide]	–
> 20	> 20	CC(C)(C)c1ccc(NC(=O)c2cc(F)cnc2NCc2ccnc3[nH]ccc23)cc1 [Example 79, N-(4-(1,1-dimethylethyl)phenyl)-5-fluoro-2-((1H-pyrrolo[2,3-b]pyridin-4-ylmethyl)amino)-3-pyridinecarboxamide]	–
–	> 20	O=C(Nc1ccc(Br)cc1)c1cc(F)cnc1NCc1ccnc2[nH]ccc12 [Example 89, N-(4-bromophenyl)-5-fluoro-2-((1H-pyrrolo[2,3-b]pyridin-4-ylmethyl)amino)-3-pyridinecarboxamide]	< 0.5
–	> 20	CCc1nc2cc(NC(=O)c3cc(F)cnc3NCc3ccnc4[nH]ccc34)ccc2o1 [Example 92, N-(2-ethyl-1,3-benzoxazol-5-yl)-5-fluoro-2-((1H-pyrrolo[2,3-b]pyridin-4-ylmethyl)amino)-3-pyridinecarboxamide]	< 0.5
–	> 20	CC(C)Oc1ccc(NC(=O)c2cc(F)cnc2NCc2ccnc3[nH]ccc23)cc1 [Example 95, 5-fluoro-N-(4-((1-methylethyl)oxy)phenyl)-2-((1H-pyrrolo[2,3-b]pyridin-4-ylmethyl)amino)-3-pyridinecarboxamide]	–
–	> 20	O=C(Nc1cccc(C(F)(F)F)c1)c1cc(F)cnc1NCc1ccnc2[nH]ccc12 [Example 98, 5-fluoro-2-((1H-pyrrolo[2,3-b]pyridin-4-ylmethyl)amino)-N-(3-(trifluoromethyl)phenyl)-3-pyridinecarboxamide]	< 0.5
–	> 20	CC(C)c1nc2cc(NC(=O)c3cc(F)cnc3NCc3ccnc4[nH]ccc34)ccc2s1 [Example 103, 5-fluoro-N-(2-(1-methylethyl)-1,3-benzothiazol-5-yl)-2-((1H-pyrrolo[2,3-b]pyridin-4-ylmethyl)amino)-3-pyridinecarboxamide]	< 0.5
–	> 20	O=C(Nc1ccc(C(F)(F)F)c(F)c1)c1cc(F)cnc1NCc1ccnc2[nH]ccc12 [Example 107, 5-fluoro-N-(3-fluoro-4-(trifluoromethyl)phenyl)-2-((1H-pyrrolo[2,3-b]pyridin-4-ylmethyl)amino)-3-pyridinecarboxamide]	< 0.5
–	> 20	O=C(Nc1ccc(C(F)(F)F)c(Cl)c1)c1cc(F)cnc1NCc1ccnc2[nH]ncc12 [Example 127, N-(3-Chloro-4-(trifluoromethyl)phenyl)-5-fluoro-2-((1H-pyrazolo[3,4-b]pyridin-4-ylmethyl)amino)-3-pyridinecarboxamide]	< 0.5
8.7	2.7	CC(C)(C)c1ccc(NC(=O)c2cccnc2NCc2ccncc2)cc1 [N-(4-tert-Butylphenyl)-2-((4-pyridinylmethyl)amino)-3-pyridinecarboxamide, reference compound]	–

More lines, now with the values behind:

SMILES	IC50 [1] [µM]	IC50 [2] [µM]	IC50 [3] [µM]
CC1(C)CNCc2cc(NC(=O)c3cccnc3NCc3ccnc4[nH]ccc34)ccc21 [Example 1, N-(4,4-Dimethyl-1,2,3,4-tetrahydroisoquinolin-7-yl)-2-[(1H-pyrrolo[2,3-b]pyridin-4-ylmethyl)amino]nicotinamide]	10	9.8	< 0.5
CC(C)(C)c1ccc(NC(=O)c2cccnc2NCc2ccnc3[nH]ccc23)cc1 [Example 5, N-(4-tert-Butylphenyl)-2-[(1H-pyrrolo[2,3-b]pyridin-4-ylmethyl)amino]nicotinamide]	> 20	> 20	< 0.5
CC1(C)CCNc2cc(NC(=O)c3cccnc3NCc3ccnc4[nH]ccc34)ccc21 [Example 9, N-(4,4-Dimethyl-1,2,3,4-tetrahydroquinolin-7-yl)-2-[(1H-pyrrolo[2,3-b]pyridin-4-ylmethyl)amino]nicotinamide]	> 20	> 20	< 0.5
O=C(Nc1ccc2c(c1)CNCC21CC1)c1cccnc1NCc1ccnc2[nH]ccc12 [Example 10, N-(4-Spiro-1′-cyclopropane-1,2,3,4-tetrahydroisoquinolin-7-yl)-2-[(1H-pyrrolo[2,3-b]pyridin-4-ylmethyl)amino]nicotinamide]	> 20	> 20	< 0.5
O=C(Nc1cccc(C(O)(C(F)(F)F)C(F)(F)F)c1)c1cccnc1NCc1ccnc2[nH]ccc12 [Example 18, 2-[(1H-Pyrrolo[2,3-b]pyridin-4-ylmethyl)amino]-N-{3-[2,2,2-trifluoro-1-hydroxy-1-(trifluoromethyl)ethyl]phenyl}nicotinamide]	–	> 20	< 0.5
CC1(C)CC(=O)Nc2cc(NC(=O)c3cccnc3NCc3ccnc4c3CCN4)ccc21 [Example 30, 2-[(2,3-Dihydro-1H-pyrrolo[2,3-b]pyridin-4-ylmethyl)amino]-N-(4,4-dimethyl-2-oxo-1,2,3,4-tetrahydroquinolin-7-yl)nicotinamide]	> 20	> 20	–
CC(=O)N1CC(C)(C)c2ccc(NC(=O)c3cccnc3NCc3c[nH]c4ncccc34)cc21 [Example 39, N-(1-acetyl-3,3-dimethyl-2,3-dihydro-1H-indol-6-yl)-2-[(1H-pyrrolo[2,3-b]pyridin-3-ylmethyl)amino]nicotinamide]	–	> 20	< 0.5
CN1CCC[C@H]1COc1cc(NC(=O)c2cccnc2NCc2ccnc3[nH]ccc23)ccc1C(F)(F)C(F)(F)F [Example 65, N-(3-((((2S)-1-methyl-2-pyrrolidinyl)methyl)oxy)-4-(pentafluoroethyl)phenyl)-2-((1H-pyrrolo[2,3-b]pyridin-4-ylmethyl)amino)-3-pyridinecarboxamide]	–	> 20	< 0.5
CN1CCC[C@@H]1COc1cc(NC(=O)c2cccnc2NCc2ccnc3[nH]ccc23)ccc1C(F)(F)F [Example 68, N-(3-((((2R)-1-methyl-2-pyrrolidinyl)methyl)oxy)-4-(trifluoromethyl)phenyl)-2-((1H-pyrrolo[2,3-b]pyridin-4-ylmethyl)amino)-3-pyridinecarboxamide]	–	> 20	< 0.5
O=C(Nc1ccc(C(F)(F)C(F)(F)F)c(OC[C@@H]2CCCN2)c1)c1cccnc1NCc1ccnc2[nH]ccc12 [Example 72, N-(4-(Pentafluoroethyl)-3-(((2S)-2-pyrrolidinylmethyl)oxy)phenyl)-2-((1H-pyrrolo[2,3-b]pyridin-4-ylmethyl)amino)-3-pyridinecarboxamide]	–	> 20	< 0.5
